The subject of this assay is glutamatergic neurons on the Brain-Chip. The assay can be described thus: Calcium imaging (Fluo-4 AM) of neuronal activity on the Brain-Chip. The class given is cell-based, human. Particulars: NMDA and AMPA receptor inhibition (DAP5 and CNQX respectively), compared to control without inhibitors. The text has this:
FIG. 30A Spontaneous activity was studied by means of calcium imaging, enabling the investigation of neuronal activity of single cells and the network as a whole. Fluo-4 AM, a calcium sensitive fluorescent dye, was loaded onto the cells, and intracellular calcium fluctuations were monitored over time using high-speed imaging. […] FIG. 38A-C Pharmacological Targeting of the Glutamatergic Neurons in the Brain-Chip. […] Scale bars=200 μm. […] FIG. 38A-C Pharmacological Targeting of the Glutamatergic Neurons in the Brain-Chip. […] Scale bars=200 μm.

Regarding `N#Cc1cc2c(cc1[N+](=O)[O-])=NC(=O)C(=O)N=2` [CNQX, 6-cyano-7-nitroquinoxaline-2,3-dione], the “effect on percentage of active neurons” value is “reduced the percentage of active neurons”.

These data come from patent publication US12098356B2, “Effects of space travel on human brain cells” (EMULATE, Inc., priority 2017, dated 2024).
